Test results published in patent US20210015881A1 (priority 2016, published 2021).

Columns and labels:
aconitic arrhythmia = conditions: for effect on baseline heart rate and contraction (intervals R-R, PQ, QT): i.v. at doses that provide antiarrhythmic effect in 50% of rats; for antiarrhythmic activity and range of antiarrhythmic action, comparison: active doses 5-10 minutes prior to i.v. aconitine
Protocol: The study was conducted in anesthetized white outbred rats. The objective of the experiment was to study the efficiency of intravenous administration of the studied substances and known antiarrhythmic agents in the model of aconitic arrhythmia in anesthetized rats.
The studied substances and medicinal products for comparison were administered in active doses 5-10 minutes prior to intravenous administration of aconitine.

[1] = test system: cardiac arrhythmia caused by barium chloride; assay: Cardiac arrhythmia caused by barium chloride; format: in vivo, rats
Protocol: The study was conducted in 60 white outbred rats. […] Out of 15 control animals, which received barium chloride at a dose of 20 mg/kg, […] of the rats died.
Rhythm disturbances were mostly of a ventricular type, in the form of ventricular bigeminy, trigeminy, group extrasystoles, transient ventricular standstill, flutter and ventricular fibrillation. In addition, various types of conduction disorders and increased ST segment above contours were observed.
Intravenous administration of the studied substances at doses of 0.05-0.1 mg/kg 10 min prior to the injection of barium chloride prevented the development of arrhythmias in 60-90% of rats. Antiarrhythmic effect of the studied substances combines with antitoxic effect against lethality from barium chloride.

corneal reflex = assay: Terminal (topical) anesthesia of the rabbit eye, method of Rainier-Valet; format: in vivo, rabbits
Protocol: The local anesthetic effect of the studied substances was investigated in 10 rabbits. The effect on terminal anesthesia was investigated by the method of Rainier-Valet, by identifying the corneal reflex to mechanical irritation every 5-10 min after instillation of 2 drops of 0.1%-0.25%-0.5% solutions of the studied substances.
(§1) The time of anesthesia onset, its depth and duration were determined. Activity of the studied substances at topical anesthesia was compared to dicaine; at infiltration anesthesia-to novocaine.

[2] = test system: threshold of pain irritation; assay: Infiltration anesthesia in rabbits, method of Bullbring-Vida; format: in vivo; conditions: 0.5% solution
Protocol: The ability of the medicinal product to cause infiltration anesthesia was studied in rabbits by the method of Bullbring-Vida (pain method).
as §1

CCOC(=O)Nc1ccc2c(c1)N(C(=O)CCN1CCOCC1)c1ccccc1S2 [Etmozin]
effect on baseline heart rate and contraction (intervals R-R, PQ, QT) (aconitic arrhythmia): inhibition of the baseline heart rate and contraction | antiarrhythmic activity and range of antiarrhythmic action, comparison (aconitic arrhythmia; i.v.): most efficient among the reference antiarrhythmic agents

CCN(CC)CC(=O)Nc1c(C)cccc1C [Lidocaine]
duration of effect, comparison (aconitic arrhythmia; i.v., active doses prior to aconitine): shortest effect

CCN(CC)CCNC(=O)c1ccc(N)cc1 [Procainamide]
antiarrhythmic and antitoxic activity, comparison ([1]; barium chloride model of ventricular type arrhythmia): weakest antiarrhythmic and antitoxic activity

C=C[C@H]1C[N@@]2CC[C@H]1C[C@@H]2[C@@H](O)c1ccnc2ccc(OC)cc12 [Quinidine]
effect on baseline heart rate and contraction (intervals R-R, PQ, QT) (aconitic arrhythmia): inhibition of the baseline heart rate and contraction | antiarrhythmic and antitoxic effect compared with substances 1-9 at 0.05 mg/kg and 0.1 mg/kg ([1]; 5 mg/kg and 10 mg/kg): approximately similar

COc1ccc(CCN(C)CCCC(C#N)(c2ccc(OC)c(OC)c2)C(C)C)cc1OC (centres unmarked) [Verapamil]
antiarrhythmic activity and range of antiarrhythmic action, comparison (aconitic arrhythmia; i.v.): least effective

CCCCNc1ccc(C(=O)OCCN(C)C)cc1 [dicaine]
average duration of terminal anesthesia of the rabbit eye (corneal reflex; 0.1%): 37 min | average duration of terminal anesthesia of the rabbit eye (corneal reflex; 0.5%): 52 min | onset of terminal anesthesia of the rabbit eye (corneal reflex; concentrations of 0.1% and 0.5%): 1 to 2 min

CCN(CC)CCOC(=O)c1ccc(N)cc1 [novocaine]
duration of local anesthetic effect [2]: about 90 min
